Laboratory results: patent publication US20240335431A1, “1-H-PYRROLO[2,3-c]PYRIDINE COMPOUNDS” (Acerta Pharma B.V., priority 2023, published 2024)
Like-named read-outs stand apart in the source and are kept apart here.

Columns and labels:
[1] = Human hepatocyte intrinsic clearance assay; format: in vitro ADME; conditions: human hepatocytes
Method: Human hepatocytes (LiverPool™ 10-Donor Human hepatocytes (Mixed Gender, PEG-free, Product No. S01205, 5 million cells per vial) were obtained from BioreclamationIVT. DMSO was sourced from Solarbio S&T Co Ltd. Leibovitz's L-15 Medium, Williams' Medium E, GlutaMAX™-1 (100×), HEPES, DPBS (10×) and Human Recombinant Insulin Solution were purchased from Gibco. Isotonic Percoll Solution was purchased from GE Healthcare. Fetal Bovine Serum (FBS) was purchased from Corning.
10 mM dexamethasone stock solution was prepared by dissolving 3.9 mg dexamethasone in 1 mL of DMSO. An Isotonic Percoll Solution was prepared by dilution of Percoll with DPBS (10×). 15 mL of Isotonic Percoll Solution (90% Percoll/10% DPBS) was added to 31.25 mL William's E medium containing 500 mL of GlutaMAX™-1 (100×), 750 mL of 1M HEPES, 2.5 mL of 5% FBS, 50 mL of 4 mg/mL Human Recombinant Insulin Solution and 5 mL of the 10 mM dexamethasone stock.
2 mL of 10 mM DMSO stock solutions of test compound were added to 198 mL acetonitrile to produce 100 mmol/L concentration.
The human hepatocyte vial was thawed at 37° C. in a waterbath. Once thawed, contents were poured into a 50 mL conical tube and centrifuged at 100 g for 10 minutes. The thawing medium was poured out and 4 mL L-15 medium was added. The tube was gently shaken to resuspend the hepatocytes and cells were counted with an appropriate cell counter. 247.5 mL of the hepatocyte suspension was transferred into each well of the plate and pre-warmed at 600 rpm and 50° C. to enable the temperature to rise to 37° C.
2.5 mL of the […] test compound solution was added to initiate the reaction (final concentration […]) and incubated at 37° C. with shaking at 900 rpm. At 0.5, 5, 15, 30, 45, 60, 80, 100 and 120 minutes, 20 mL was taken into a quenching solution of acetonitrile containing internal standards. The mix was vortexed at 800 rpm for 2 minutes followed by centrifugation for 20 minutes at 4000 rpm at 4° C. 40 mL of supernatant was transferred into a 96 well analysis plate containing 160 mL of water in each well. The analysis plate was shaken at 100 rpm for 2 minutes prior to analysis by LC-MS/MS.
Peak areas were determined from extracted ion chromatograms. Percent parent remaining was calculated from peak area of test compound. The slope value, k, was determined by linear regression of the natural logarithm of percent parent remaining versus incubation time.
The in vitro intrinsic clearance (in vitro CLint in mL/min/10^6 cells) was determined from the slope value using the following equation: […]
where V is the incubation volume (0.25 mL) and N is the number of hepatocytes per well (0.25×10^6 cells).

HEL cells = assay: Proliferation assay, HEL control cell line (CellTiter-Glo, 7 days); format: cell-based, human
How it was run: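 Cells seeded at 125 (MOLM-13), 300 (MV4;11), 75 (OCI-AML3) or 200 (HEL) per well were exposed to 3.16-fold compound dilutions (0.1% DMSO) for 7 days at 37° C. Viability by CellTiter-Glo luminescence, normalized to DMSO (100%) and day-0 plate (0%); IC50 from one-site dose-response fit.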

Compound | HH CLint [1] [μl/min/1E6] | IC50 (HEL cells; Homo sapiens, HEL, 168 h) [µM] | IC50 (HEL cells) [µM]
CC(C)N(C(=O)c1cc(F)ccc1-n1cc(C(=O)C2CCN(C(=O)[C@H]3NC[C@@H]4C[C@@H]43)CC2)c2ccncc21)C(C)C [Example 19, 2-(3-(1-((1S,2S,5R)-3-Azabicyclo[3.1.0]hexane-2-carbonyl)piperidine-4-carbonyl)-1H-pyrrolo[2,3-c]pyridin-1-yl)-5-fluoro-N,N-diisopropylbenzamide] | 3.6 | > 10 | 
CC(C)N(C(=O)c1cc(F)ccc1-n1cc(C(=O)C2CCN(C(=O)[C@H]3NC[C@@H]4CCC[C@@H]43)CC2)c2ccncc21)C(C)C [Example 21, 5-Fluoro-N,N-diisopropyl-2-(3-(1-((1S,3αR,6αS)-octahydrocyclopenta[c]pyrrole-1-carbonyl)piperidine-4-carbonyl)-1H-pyrrolo[2,3-c]pyridin-1-yl)benzamide] | 2.0 | > 10 | 
CCN(C(=O)c1cc(F)ccc1-n1c(C)c(C(=O)[C@@H]2CCN(C(=O)[C@@H]3CCC4(CC4)N3)[C@@H](C)C2)c2ccncc21)C(C)C (single isomer, unassigned) [Example 52-1, N-Ethyl-5-fluoro-N-isopropyl-2-(2-methyl-3-((2R*,4S*)-2-methyl-1-((S)-4-azaspiro[2.4]heptane-5-carbonyl)piperidine-4-carbonyl)-1H-pyrrolo[2,3-c]pyridin-1-yl)benzamide] | 4.1 |  | 
Cc1c(C(=O)C2CCN(C(=O)[C@H]3NC[C@@H]4C[C@@H]43)CC2)c2ccncc2n1-c1ccc(F)cc1C(=O)N(CC(F)(F)F)C(C)C (single isomer, unassigned) [Example 51-2] | 1.9 |  | > 10
CC(C)N(C(=O)c1cc(F)ccc1-n1cc(C(=O)C2CCN(C(=O)[C@H]3N[C@@H]4CC[C@H]3C4)CC2)c2ccncc21)C(C)C [Example 16, 2-(3-(1-((1R,3S,4S)-2-Azabicyclo[2.2.1]heptane-3-carbonyl)piperidine-4-carbonyl)-1H-pyrrolo[2,3-c]pyridin-1-yl)-5-fluoro-N,N-diisopropylbenzamide] | <1.0 | > 10 | 
CC(C)N(C(=O)c1cc(F)ccc1-n1cc(C(=O)C2CCN(C(=O)[C@@H]3CCC(C)(C)N3)CC2)c2ccncc21)C(C)C [Example 27, (S)-2-(3-(1-(5,5-Dimethylpyrrolidine-2-carbonyl)piperidine-4-carbonyl)-1H-pyrrolo[2,3-c]pyridin-1-yl)-5-fluoro-N,N-diisopropylbenzamide] | <1.0 | > 10 | 
CC(C)N(C(=O)c1cc(F)ccc1-n1cc(C(=O)C2CCN(C(=O)[C@@H]3CCC4(CC4)N3)CC2)c2ccncc21)C(C)C [Example 24, (S)-2-(3-(1-(4-Azaspiro[2.4]heptane-5-carbonyl)piperidine-4-carbonyl)-1H-pyrrolo[2,3-c]pyridin-1-yl)-5-fluoro-N,N-diisopropylbenzamide] | 4.1 | > 10 | 
CCN(C(=O)c1cc(F)ccc1-n1c(C)c(C(=O)[C@@H]2CCN(C(=O)[C@@H]3CC[C@H](C)N3)[C@@H](C)C2)c2ccncc21)C(C)C (stereo in doubt) [Example 63, N-Ethyl-5-fluoro-N-isopropyl-2-(2-methyl-3-((2S,4RS)-2-methyl-1-((2S,5S)-5-methylpyrrolidine-2-carbonyl)piperidine-4-carbonyl)-1H-pyrrolo[2,3-c]pyridine-1-yl)benzamide] |  | > 10 | 
Cc1c(C(=O)C2CCN(C(=O)[C@H]3NC[C@@H]4C[C@@H]43)CC2)c2ccncc2n1-c1ccc(F)cc1C(=O)N(CC(F)(F)F)C(C)C (single isomer, unassigned) [Example 51-1] |  | > 10 | 
CCN(C(=O)c1cc(F)ccc1-n1cc(C(=O)C2CN(C(=O)[C@H]3N[C@@H]4CC[C@H]3C4)C2)c2ccncc21)C(C)C [Example 8, 2-(3-(1-((1R,3S,4S)-2-Azabicyclo[2.2.1]heptane-3-carbonyl)azetidine-3-carbonyl)-1H-pyrrolo[2,3-c]pyridin-1-yl)-N-ethyl-5-fluoro-N-isopropylbenzamide] |  | > 10 | 
